Target: T1, FGFR1 (Homo sapiens, UniProt P11362)
T1 construct: made in house; host or cells: Sf9 insect cells, baculovirus (pFastBacHis), by the same method as VEGFR2
Assay: Inhibition against receptor tyrosine kinase activity (HTRF), FGFR1
Type: biochemical
Settings: His6-FGFR1 cytoplasmic domain, biotin-poly(GT), HTRF; read-out: FGFR1 kinase IC50
Excerpt: This assay is used to determine inhibition of a test substance on tyrosine kinase activity. DNA coding for the cytoplasmic domain of VEGFR2 is obtained by total cDNA synthesis (Edwards M, International Biotechnology Lab 5(3), 19-25, 1987) or by cloning. Expression in an appropriate expression system can produce a polypeptide with tyrosine kinase activity. […] For VEGFR2 (GenBank Accession No. L04947), the 1.7 kb DNA fragment described by Terman et al. (Oncogene, 6(9), 1677-1683, 1991), coding for the cytoplasmic domain, beginning with lysine 791 and including the termination codon, was isolated from a human placental cDNA library (purchased from Clontech Laboratories, Inc.) and cloned in a Baculovirus expression vector (pFastBacHis, purchased from GIBCO BRL). The recombinant construct was transfected into insect cells (Spondoptea frugiperda9 (Sf9)) to prepare a recombinant Baculovirus. (Instructions for preparation and use of recombinant Baculovirus may be found in standard texts, such as “Bac-To-Bac Baculovirus Expression System” (GIBCO BRL).) The cytoplasmic fragment starting from lysine 398 (FGFR1, GenBank Accession No. X52833), the cytoplasmic fragment starting from lysine 558 (PDGFRβ, GenBank Accession No. M21616) or the cytoplasmic fragment starting from lysine 974 (HGFR, GenBank Accession No. J02958) may be cloned and expressed by the same method for use in assays for other tyrosine kinases. EGFR was purchased from Sigma Co. (Product No. E-2645).
For expression of the VEGFR2 tyrosine kinase, Sf9 cells were infected with the VEGFR2 recombinant virus and collected after 48 hours. The collected cells were rinsed with ice-cooled phosphate buffered saline (PBS) and then resuspended using 20 ml of ice-cooled Lysis Buffer (50 mM Tris-HCl (pH 8.5), 5 mM 2-mercaptoethanol, 100 mM KCl, 1 mM phenylmethylsulfonyl fluoride, 1% (v/v) NP-40) per 1.5×10^8 cells. The suspension was centrifuged at 12,000 rpm for 30 minutes at 4° C. and the supernatant was obtained. The supernatant was added to a Ni-NTA agarose column (3 ml, purchased from Qiagen) equilibrated with Buffer A {20 mM Tris-HCl (pH 8.5), 5 mM 2-mercaptoethanol, 500 mM KCl, 20 mM imidazole, 10% (v/v) glycerol}. The column was washed with 30 ml of Buffer A, and then with 6 ml of Buffer B {20 mM Tris-HCl (pH 8.5), 5 mM 2-mercaptoethanol, 1M KCl, 10% (v/v) glycerol}, and finally with 6 ml of Buffer A. After washing, it was eluted with 6 ml of Buffer C {20 mM Tris-HCl (pH 8.5), 5 mM 2-mercaptoethanol, 100 mM KCl, 100 mM imidazole, 10% (v/v) glycerol}. The eluate was placed on a dialysis membrane (purchased from Spectrum Laboratories) and dialyzed with a dialysis buffer {20 mM Tris-HCl (pH 7.5), 10% (v/v) glycerol, 1 mM dithiothreitol, 0.1 mM Na3VO4, 0.1 mM EGTA}. After dialysis, it was supplied for SDS-electrophoresis, and the recombinant protein (His6-VEGFR2, cytoplasmic domain of VEGFR2 fused with 6 histidine residues at the N-terminus) detected at a molecular weight of approximately 100 kDa with Coumassie Brilliant Blue staining was assayed using BSA (bovine serum albumin, purchased from Sigma Co.) as the standard substance, and stored at −80° C. until use. Using the same method for the cytoplasmic domains of FGFR1, PDGFRβ and HGFR yielded respective recombinant proteins fused with 6 histidine residues at the N-terminal (His6-FGFR1, His6-PDGFRβ or His6-HGFR).
The tyrosine kinase reaction was conducted as follows. In the case of VEGFR2, for example, 10 μl of a kinase reaction solution {200 mM Hepes (pH 7.4), 80 mM MgCl2, 16 mM MnCl2, 2 mM Na3VO4}, 250 ng of biotin-bound poly(Glu4:Tyr1) (biotin-poly(GT), purchased from CIS Diagnostics Co.) (6 μl of a 15-fold dilution with distilled water), 15 ng of His6-VEGFR2 (10 μl of a 240-fold dilution with 0.4% BSA solution) and the test substance dissolved in dimethyl sulfoxide (4 μl of a 100-fold dilution with 0.1% BSA solution) were added into each well of a 96-well round-bottom plate (NUNC Co., Product No. 163320), to a total of 30 μl. […]

T1 sequence (P11362 398-822 limits assumed): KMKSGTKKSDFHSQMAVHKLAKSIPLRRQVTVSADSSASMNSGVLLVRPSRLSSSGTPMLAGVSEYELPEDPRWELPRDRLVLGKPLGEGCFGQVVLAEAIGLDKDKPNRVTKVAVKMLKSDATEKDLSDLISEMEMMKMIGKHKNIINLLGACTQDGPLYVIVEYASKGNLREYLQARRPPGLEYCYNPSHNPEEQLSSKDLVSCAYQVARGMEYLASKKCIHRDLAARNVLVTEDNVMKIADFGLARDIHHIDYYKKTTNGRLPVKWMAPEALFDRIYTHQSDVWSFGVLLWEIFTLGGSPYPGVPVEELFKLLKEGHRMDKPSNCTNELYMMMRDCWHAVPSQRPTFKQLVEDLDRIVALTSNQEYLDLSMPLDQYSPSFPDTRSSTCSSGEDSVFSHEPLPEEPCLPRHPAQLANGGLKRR

IC50 [nM]	Compound
6.3	CNC(=O)n1ccc2cc(Oc3ccnc(NC(=O)N4CCC(O)CC4)c3)ccc21 [Example 39, N1-Methyl-5-(2-((4-hydroxypiperidino)carbonyl)amino-4-pyridyl)oxy-1H-1-indolecarboxamide]
3.2	CNC(=O)n1ccc2cc(Oc3ccnc(NC(=O)N4CCC(C)(O)CC4)c3)ccc21 [Example 41, 5-(2-(((4-Hydroxy-4-methylpiperidin-1-yl)carbonyl)amino)pyridin-4-yloxy)-1H-1-indole-1-carboxylic acid methylamide]
12	CNC(=O)n1ccc2cc(Oc3ccnc(NC(=O)N4CCC(N5CCCC5)CC4)c3)ccc21 [Example 46, N1-Methyl-5-(2-(((4-(pyrrolidin-1-yl)piperidin-1-yl)carbonyl)amino)pyridin-4-yloxy)-1H-1-indolecarboxamide]
21	CNC(=O)n1ccc2cc(Oc3ccnc(NC(=O)N4CCC(N5CCCCC5)CC4)c3)ccc21 [Example 47, N1-Methyl-5-(2-(((4-(piperidin-1-yl)piperidin-1-yl)carbonyl)amino)pyridin-4-yloxy)-1H-1-indolecarboxamide]
2.1	CNC(=O)n1ccc2cc(Oc3ccnc(NC(=O)N4CCOCC4)c3)ccc21 [Example 53, N4-(4-(1-(Methylamino)carbonyl-1H-5-indolyl)oxy-2-pyridyl)-4-morpholinecarboxamide]
